Measurements as given in patent US20230085307A1, “PYRIDAZINONE COMPOUND AND HERBICIDE” (NISSAN CHEMICAL CORPORATION, priority 2019, published 2023).

Assays:
barnyard grass [1] = experiment: Test Example 5: herbicidal effect by foliage application, plastic box (Table 20, symbol H); assay type: in vivo, barnyard grass (Echinochloa crus-galli); conditions: foliage application, 320 g/ha, three weeks after application
In short: (§1)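 Plants sown in sterilized diluvial soil and grown 14 days in a greenhouse at 25° C to 30° C, then sprayed on the foliage with the compound's emulsion diluted in water to a predetermined herbicide amount. Injury to weeds and crops scored three weeks after application on a visual rating scale.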

Italian ryegrass [2] = experiment: Test Example 5: herbicidal effect by foliage application, plastic box (Table 20, symbol K); assay type: in vivo, Italian ryegrass (Lolium multiflorum); conditions: foliage application, 320 g/ha, three weeks after application
In short: as §1

green foxtail [3] = experiment: Test Example 5: herbicidal effect by foliage application, plastic box (Table 20, symbol G); assay type: in vivo, green foxtail (Setaria viridis); conditions: foliage application, 320 g/ha, three weeks after application
In short: as §1

oval-leafed pondweed = experiment: Test Example 1: herbicidal activity, application before weed generation under submerged conditions (Table 16, symbol C); assay type: in vivo, oval-leafed pondweed (Monochoria vaginalis); conditions: 320 g/ha applied herbicide
In short: (§2)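 Submerged Wagner pots (alluvial soil, 4 cm water) sown with weed seeds and planted with 2.5-leaf rice seedlings; emulsifiable concentrate diluted in water applied to water surface on sowing day. Held in greenhouse at 25-30 °C; injury scored 0-5 by herbicidal rate after three weeks.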

green foxtail [4] = experiment: Test Example 4: herbicidal effect by soil treatment (Table 19, symbol G); assay type: in vivo, green foxtail (Setaria viridis); conditions: amount of applied herbicide 320 g/ha
In short: (§3)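 Seeds were sown in sterilized diluvial soil and covered with about 1.5 cm of soil. An emulsion formulation diluted with water to a predetermined herbicide amount was sprayed evenly onto the soil surface. Plants grew in a greenhouse at 25° C. to 30° C., and the effect was scored three weeks after application using criteria from an earlier test.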

wild oat [5] = experiment: Test Example 5: herbicidal effect by foliage application, plastic box (Table 20, symbol I); assay type: in vivo, wild oat (Avena fatua); conditions: foliage application, 320 g/ha, three weeks after application
In short: as §1

persian speedwell [6] = experiment: Test Example 5: herbicidal effect by foliage application, plastic box (Table 20, symbol R); assay type: in vivo, Persian speedwell (Veronica persica); conditions: foliage application, 320 g/ha, three weeks after application
In short: as §1

windgrass [7] = experiment: Test Example 5: herbicidal effect by foliage application, plastic box (Table 20, symbol L); assay type: in vivo, windgrass (Apera spica-venti); conditions: foliage application, 320 g/ha, three weeks after application
In short: as §1

windgrass [8] = experiment: Test Example 4: herbicidal effect by soil treatment (Table 19, symbol L); assay type: in vivo, windgrass (Apera spica-venti); conditions: amount of applied herbicide 320 g/ha
In short: as §3

blackgrass [9] = experiment: Test Example 4: herbicidal effect by soil treatment (Table 19, symbol J); assay type: in vivo, blackgrass (Alopecurus myosuroides); conditions: amount of applied herbicide 320 g/ha
In short: as §3

late watergrass = experiment: Test Example 1: herbicidal activity, application before weed generation under submerged conditions (Table 16, symbol A); assay type: in vivo, late watergrass (Echinochloa oryzicola); conditions: 320 g/ha applied herbicide
In short: as §2

barnyard grass [10] = experiment: Test Example 4: herbicidal effect by soil treatment (Table 19, symbol H); assay type: in vivo, barnyard grass (Echinochloa crus-galli); conditions: amount of applied herbicide 320 g/ha
In short: as §3

chickweed [11] = experiment: Test Example 4: herbicidal effect by soil treatment (Table 19, symbol P); assay type: in vivo, common chickweed (Stellaria media); conditions: amount of applied herbicide 320 g/ha
In short: as §3

Japanese bulrush = experiment: Test Example 1: herbicidal activity, application before weed generation under submerged conditions (Table 16, symbol B); assay type: in vivo, Japanese bulrush (Schoenoplectus juncoides); conditions: 320 g/ha applied herbicide
In short: as §2

blackgrass [12] = experiment: Test Example 5: herbicidal effect by foliage application, plastic box (Table 20, symbol J); assay type: in vivo, blackgrass (Alopecurus myosuroides); conditions: foliage application, 320 g/ha, three weeks after application
In short: as §1

chickweed [13] = experiment: Test Example 5: herbicidal effect by foliage application, plastic box (Table 20, symbol P); assay type: in vivo, common chickweed (Stellaria media); conditions: foliage application, 320 g/ha, three weeks after application
In short: as §1

lambsquarters [14] = experiment: Test Example 4: herbicidal effect by soil treatment (Table 19, symbol O); assay type: in vivo, lambsquarters (Chenopodium album); conditions: amount of applied herbicide 320 g/ha
In short: as §3

barnyard grass [15] = experiment: Test Example 3: herbicidal effect by foliage application, Wagner pot (Table 18, symbol H); assay type: in vivo, barnyard grass (Echinochloa crus-galli); conditions: 320 g/ha
In short: (§4)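 Plants were sown in alluvial soil held under 0.1–0.5 cm standing water and grown 14 days in a greenhouse at 25–30 °C. An emulsifiable formulation, water-diluted to the set dose, was then sprayed onto the foliage, and effects were scored three weeks later using previously defined criteria.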

redroot pigweed [16] = experiment: Test Example 5: herbicidal effect by foliage application, plastic box (Table 20, symbol N); assay type: in vivo, redroot pigweed (Amaranthus retroflexus); conditions: foliage application, 320 g/ha, three weeks after application
In short: as §1

wild oat [17] = experiment: Test Example 4: herbicidal effect by soil treatment (Table 19, symbol I); assay type: in vivo, wild oat (Avena fatua); conditions: amount of applied herbicide 320 g/ha
In short: as §3

false cleavers [18] = experiment: Test Example 5: herbicidal effect by foliage application, plastic box (Table 20, symbol Q); assay type: in vivo, false cleavers (Galium spurium); conditions: foliage application, 320 g/ha, three weeks after application
In short: as §1

false cleavers [19] = experiment: Test Example 4: herbicidal effect by soil treatment (Table 19, symbol Q); assay type: in vivo, false cleavers (Galium spurium); conditions: amount of applied herbicide 320 g/ha
In short: as §3

southern crabgrass [20] = experiment: Test Example 5: herbicidal effect by foliage application, plastic box (Table 20, symbol F); assay type: in vivo, southern crabgrass (Digitaria ciliaris); conditions: foliage application, 320 g/ha, three weeks after application
In short: as §1

persian speedwell [21] = experiment: Test Example 4: herbicidal effect by soil treatment (Table 19, symbol R); assay type: in vivo, Persian speedwell (Veronica persica); conditions: amount of applied herbicide 320 g/ha
In short: as §3

Chinese sprangletop = experiment: Test Example 3: herbicidal effect by foliage application, Wagner pot (Table 18, symbol D); assay type: in vivo, chinese sprangletop (Leptochloa chinensis); conditions: 320 g/ha
In short: as §4

southern crabgrass [22] = experiment: Test Example 4: herbicidal effect by soil treatment (Table 19, symbol F); assay type: in vivo, southern crabgrass (Digitaria ciliaris); conditions: amount of applied herbicide 320 g/ha
In short: as §3

velvetleaf [23] = experiment: Test Example 4: herbicidal effect by soil treatment (Table 19, symbol M); assay type: in vivo, velvetleaf (Abutilon theophrasti); conditions: amount of applied herbicide 320 g/ha
In short: as §3

redroot pigweed [24] = experiment: Test Example 4: herbicidal effect by soil treatment (Table 19, symbol N); assay type: in vivo, redroot pigweed (Amaranthus retroflexus); conditions: amount of applied herbicide 320 g/ha
In short: as §3

velvetleaf [25] = experiment: Test Example 5: herbicidal effect by foliage application, plastic box (Table 20, symbol M); assay type: in vivo, velvetleaf (Abutilon theophrasti); conditions: foliage application, 320 g/ha, three weeks after application
In short: as §1

rice flat sedge = experiment: Test Example 3: herbicidal effect by foliage application, Wagner pot (Table 18, symbol E); assay type: in vivo, rice flat sedge (Cyperus iria); conditions: 320 g/ha
In short: as §4

lambsquarters [26] = experiment: Test Example 5: herbicidal effect by foliage application, plastic box (Table 20, symbol O); assay type: in vivo, lambsquarters (Chenopodium album); conditions: foliage application, 320 g/ha, three weeks after application
In short: as §1

Italian ryegrass [27] = experiment: Test Example 4: herbicidal effect by soil treatment (Table 19, symbol K); assay type: in vivo, Italian ryegrass (Lolium multiflorum); conditions: amount of applied herbicide 320 g/ha
In short: as §3

SMILES | herbicidal effect grade, H: barnyard grass (barnyard grass [1]) | herbicidal effect grade, K: Italian ryegrass (Italian ryegrass [2]) | herbicidal effect grade, G: green foxtail (green foxtail [3]) | Herbicidal effect on C: oval-leafed pondweed (grade 0-5) (oval-leafed pondweed) | herbicidal effect rating, G: green foxtail (green foxtail [4]) | herbicidal effect grade, I: wild oat (wild oat [5]) | herbicidal effect grade, R: persian speedwell (persian speedwell [6]) | herbicidal effect grade, L: windgrass (windgrass [7]) | herbicidal effect rating, L: windgrass (windgrass [8]) | herbicidal effect rating, J: blackgrass (blackgrass [9]) | Herbicidal effect on A: late watergrass (grade 0-5) (late watergrass) | herbicidal effect rating, H: barnyard grass (barnyard grass [10]) | herbicidal effect rating, P: chickweed (chickweed [11]) | Herbicidal effect on B: Japanese bulrush (grade 0-5) (Japanese bulrush) | herbicidal effect grade, J: blackgrass (blackgrass [12]) | herbicidal effect grade, P: chickweed (chickweed [13]) | herbicidal effect rating, O: lambsquarters (lambsquarters [14]) | herbicidal effect on H (barnyard grass), rating 0-5 (barnyard grass [15]) | herbicidal effect grade, N: redroot pigweed (redroot pigweed [16]) | herbicidal effect rating, I: wild oat (wild oat [17]) | also measured
Cc1nn(C)c(=O)c(-c2c(-c3ccccc3OC(C)C)sc3ccccc23)c1O [1-017] | 4 (Herbicidal rate of 70% or more and less than 90%) | 2 (Herbicidal rate of 20% or more and less than 40%) | 4 (Herbicidal rate of 70% or more and less than 90%) | 3 (Herbicidal rate of 40% or more and less than 70%) | 0 (Herbicidal rate of 5% or less (almost no effect)) | 4 (Herbicidal rate of 70% or more and less than 90%) | 5 (Herbicidal rate of 90% or more (almost completely withered)) | 4 (Herbicidal rate of 70% or more and less than 90%) | 0 (Herbicidal rate of 5% or less (almost no effect)) | 2 (Herbicidal rate of 20% or more and less than 40%) | 3 (Herbicidal rate of 40% or more and less than 70%) | 0 (Herbicidal rate of 5% or less (almost no effect)) | 4 (Herbicidal rate of 70% or more and less than 90%) | 3 (Herbicidal rate of 40% or more and less than 70%) | 4 (Herbicidal rate of 70% or more and less than 90%) | 5 (Herbicidal rate of 90% or more (almost completely withered)) | 0 (Herbicidal rate of 5% or less (almost no effect)) | 5 (Herbicidal rate of 90% or more (almost completely withered)) | 4 (Herbicidal rate of 70% or more and less than 90%) | 1 (Herbicidal rate of 5% or more and less than 20%) | herbicidal effect grade, Q: false cleavers (false cleavers [18]): 5 (Herbicidal rate of 90% or more (almost completely withered)); herbicidal effect rating, Q: false cleavers (false cleavers [19]): 0 (Herbicidal rate of 5% or less (almost no effect)); herbicidal effect grade, F: southern crabgrass (southern crabgrass [20]): 3 (Herbicidal rate of 40% or more and less than 70%); herbicidal effect rating, R: persian speedwell (persian speedwell [21]): 4 (Herbicidal rate of 70% or more and less than 90%); herbicidal effect on D (Chinese sprangletop), rating 0-5 (Chinese sprangletop): 0 (Herbicidal rate of 5% or less (almost no effect)); herbicidal effect rating, F: southern crabgrass (southern crabgrass [22]): 0 (Herbicidal rate of 5% or less (almost no effect)); herbicidal effect rating, M: velvetleaf (velvetleaf [23]): 0 (Herbicidal rate of 5% or less (almost no effect)); herbicidal effect rating, N: redroot pigweed (redroot pigweed [24]): 0 (Herbicidal rate of 5% or less (almost no effect)); herbicidal effect grade, M: velvetleaf (velvetleaf [25]): 4 (Herbicidal rate of 70% or more and less than 90%); herbicidal effect on E (rice flat sedge), rating 0-5 (rice flat sedge): 3 (Herbicidal rate of 40% or more and less than 70%); herbicidal effect grade, O: lambsquarters (lambsquarters [26]): 3 (Herbicidal rate of 40% or more and less than 70%); herbicidal effect rating, K: Italian ryegrass (Italian ryegrass [27]): 0 (Herbicidal rate of 5% or less (almost no effect))
CCCCCOc1ccc(-c2sc3ccccc3c2-c2c(OC(=O)CCC)c(C)nn(C)c2=O)cc1 [1-027] | 3 (Herbicidal rate of 40% or more and less than 70%) | 0 (Herbicidal rate of 5% or less (almost no effect)) | 0 (Herbicidal rate of 5% or less (almost no effect)) | 0 (Herbicidal rate of 5% or less (almost no effect)) | 0 (Herbicidal rate of 5% or less (almost no effect)) | 0 (Herbicidal rate of 5% or less (almost no effect)) | 4 (Herbicidal rate of 70% or more and less than 90%) | 0 (Herbicidal rate of 5% or less (almost no effect)) | 0 (Herbicidal rate of 5% or less (almost no effect)) | 0 (Herbicidal rate of 5% or less (almost no effect)) | 0 (Herbicidal rate of 5% or less (almost no effect)) | 0 (Herbicidal rate of 5% or less (almost no effect)) | 2 (Herbicidal rate of 20% or more and less than 40%) | 2 (Herbicidal rate of 20% or more and less than 40%) | 0 (Herbicidal rate of 5% or less (almost no effect)) | 5 (Herbicidal rate of 90% or more (almost completely withered)) | 0 (Herbicidal rate of 5% or less (almost no effect)) | 3 (Herbicidal rate of 40% or more and less than 70%) | 5 (Herbicidal rate of 90% or more (almost completely withered)) | 0 (Herbicidal rate of 5% or less (almost no effect)) | herbicidal effect grade, Q: false cleavers (false cleavers [18]): 3 (Herbicidal rate of 40% or more and less than 70%); herbicidal effect rating, Q: false cleavers (false cleavers [19]): 3 (Herbicidal rate of 40% or more and less than 70%); herbicidal effect grade, F: southern crabgrass (southern crabgrass [20]): 0 (Herbicidal rate of 5% or less (almost no effect)); herbicidal effect rating, R: persian speedwell (persian speedwell [21]): 2 (Herbicidal rate of 20% or more and less than 40%); herbicidal effect on D (Chinese sprangletop), rating 0-5 (Chinese sprangletop): 2 (Herbicidal rate of 20% or more and less than 40%); herbicidal effect rating, F: southern crabgrass (southern crabgrass [22]): 0 (Herbicidal rate of 5% or less (almost no effect)); herbicidal effect rating, M: velvetleaf (velvetleaf [23]): 0 (Herbicidal rate of 5% or less (almost no effect)); herbicidal effect rating, N: redroot pigweed (redroot pigweed [24]): 0 (Herbicidal rate of 5% or less (almost no effect)); herbicidal effect grade, M: velvetleaf (velvetleaf [25]): 3 (Herbicidal rate of 40% or more and less than 70%); herbicidal effect on E (rice flat sedge), rating 0-5 (rice flat sedge): 1 (Herbicidal rate of 5% or more and less than 20%); herbicidal effect grade, O: lambsquarters (lambsquarters [26]): 3 (Herbicidal rate of 40% or more and less than 70%); herbicidal effect rating, K: Italian ryegrass (Italian ryegrass [27]): 0 (Herbicidal rate of 5% or less (almost no effect))
